These results are taken from patent US20100136118A1, “CALCIUM ABSORPTION ENHANCER” (priority 2007, published 2010).

What all share (type): physicochemical
What all share (settings): organic acid calcium from egg shell mixture (A)

Data set [1] is described as follows: sustained release property in simulated gastric cavity (column, 0.1 N aqueous HCl solution). The protocol: Subsequently, 0.1 N aqueous HCl solution simulating a gastric juice as a solvent was passed through this column and separated by a low-pressure chromatography system (Bio-Rad Laboratories, Inc., BioLogic LP Chromatography System) over time. The flow rate of the solvent during the separation was 1.0 mL/min. Then, the calcium ion concentration in each separated solution was measured using Calcium C-test Wako (Wako Pure Chemical Industries, Ltd., Cat. No. 272-21801). The concentration of the organic acid in each separated solution (lactic acid, acetic acid, and citric acid) was measured using F-Kit Lactic Acid, F-Kit Acetic Acid, and F-Kit Citric Acid (Roche Diagnostics K.K., Cat. Nos. 1112821, 148261, and 139076).
The amount of an eluted solvent (mL) and changes in the amount of calcium ions (integrated value) with elution of 0.1 N HCl were measured, and the amount of an eluted solvent (mL) and changes in the amount of each organic acid (integrated value) with elution of 0.1 N HCl were measured.
Using 0.1 N aqueous HCl solution as a solvent, the amount of solvent (mL) eluted in the simulated gastric cavity and changes in the amount of calcium ions (integrated value) with elution of the solvent were evaluated. […]

Data set [2] can be described thus: sustained release property in simulated gastric cavity (column, 0.05 N aqueous HCl solution, diluted gastric juice). The protocol: The amount of an eluted solvent (mL) and changes in the amount of calcium ions (integrated value) with elution of 0.05 N HCl were measured, and the amount of an eluted solvent (mL) and changes in the amount of each organic acid (integrated value) with elution of 0.05 N HCl were measured. Among the obtained results, the measurement results regarding the amount of calcium ions (integrated value) are shown in FIG. 9.
Furthermore, as a solvent, 0.05 N aqueous HCl solution was used instead of 0.1 N aqueous HCl solution to simulate a state in which gastric juice in an organism was diluted with drinking water. Except for this condition, the amount of solvent (mL) eluted in the simulated gastric cavity and changes in the amount of calcium ions (integrated value) with elution of the solvent were evaluated in the same manner as in Example 8.
(§1) Using 0.05 N aqueous HCl solution as a solvent, the amount of solvent (mL) eluted in the simulated gastric cavity and changes in the amount of calcium ions (integrated value) with elution of the solvent were evaluated. […]
as §1

The nature of data set [3]: sustained release property in simulated intestines (column, distilled water). The protocol:
The amount of an eluted solvent (mL) and changes in the amount of calcium ions (integrated value) with elution of distilled water were measured, and the amount of an eluted solvent (mL) and changes in the amount of each organic acid (integrated value) with elution of distilled water were measured. Among the obtained results, the measurement results regarding the amount of calcium ions (integrated value) are shown in FIG. 11.
Furthermore, as a solvent, distilled water was used instead of 0.1 N aqueous HCl solution to simulate a state in which gastric acid was neutralized when a drink or a food was transported from the stomach to the duodenum. Except for this condition, the amount of solvent (mL) eluted in the simulated gastric cavity and changes in the amount of calcium ions (integrated value) with elution of the solvent were evaluated in the same manner as in Example 8.
Using distilled water as a solvent, the amount of solvent (mL) eluted in the simulated gastric cavity and changes in the amount of calcium ions (integrated value) with elution of the solvent were evaluated. […]
Using distilled water as a solvent, the amount of solvent (mL) eluted in the simulated intestine and changes in the amount of calcium ions (integrated value) with elution of the solvent were evaluated. […]

Entries after “also recorded” stand apart in the source; their conditions may differ.

In the case of `O=C([O-])CC(O)(CC(=O)[O-])C(=O)[O-].O=C([O-])CC(O)(CC(=O)[O-])C(=O)[O-].[Ca+2].[Ca+2].[Ca+2]` [calcium citrate], the results for the “amount of each organic acid (integrated value) vs amount of eluted solvent” value in data set [1], in data set [2] and in data set [3] were “started gradually after the start of elution”, “gradually dissolved; also recorded: dissolved in virtually the same amount” and “gradually dissolved”, respectively.
In the same order, the values of `CC(O)C(=O)[O-].CC(O)C(=O)[O-].[Ca+2]` (stereo not drawn) [calcium lactate] are “dissolved first at the stage of the start of measurement”, “dissolved first” and “dissolved first at the stage of the start of measurement”.
